From patent publication US6812028B1, “Embryogenesis and plant regeneration from microspores” (University of Guelph, priority 1999, dated 2004)

How the values were obtained:
Format in all cases: cell-based
[1] = tested on: wheat isolated microspores cv Pavon 79; assay: Response of wheat isolated microspore cultures to AGP levels in MMS4 medium, with and without ovaries; settings: MMS4, cv Pavon 79
Method: (§1) The effect of AGP on embryogenesis and plant regeneration was assessed in wheat microspores which were isolated from genotype Pavon 79 according to the method of the present invention. AGP levels of 0, 1, 5, and 10 mg/liter were tested. [table] […] Additionally, the data illustrates the presence of ovaries in co-culture enhanced embryogenesis and plant regeneration. Only at 10 mg/liter of AGP was significant embryogenesis observed in the absence of ovary co-culture. FIG. 5(a) illustrates the comparative response of wheat microspores to the presence or absence of wheat ovaries and 0 or 10 mg/L AGP. FIG. 6 illustrates the good embryo structure developed in wheat after 4 weeks on medium with ovaries and AGP.

[2] = tested on: wheat microspores cv Pavon 79; assay: Regeneration of plants from wheat microspores with AGP in induction media MMS4; settings: for # of plants Albino / # of plants Total / # of plants green / % of green plants / % of regen.: 250 embryos transferred to regeneration medium; for Total # of embryos: induction media MMS4, cv Pavon 79
Method: as §1, with “tested.” for “tested. [table]”

[3] = tested on: spring wheat Pavon 79 isolated microspores; assay: AGP in isolated microspore culture, liquid medium versus filter paper, co-cultured with ovaries; settings: for Total # Embryos/Plate: MMS4, with ovaries
Method: […] […] The results are similar for liquid and filter paper at the 3 compared concentrations, and 10 mg/liter of AGP gave the best response.

[4] = tested on: microspores of spring wheat genotypes Chris and Pavon 79; assay: AGP effect on embryo development from microspores, 0.8 ml drop on solid MMS4 with 3-4 ovaries; settings: for avg. # embryos: genotype Chris, 5 reps; for # embryos: genotype Pavon 79, 3 reps
Method: The effect of AGP on microspore embryogenesis in the presence of ovary co-culture was assessed using Chris and Pavon 79 wheat genotypes. Media comprising 5 mg/liter and 10 mg/liter of AGP were compared with a control medium, on microspore embryogenesis in the presence of ovary co-culture. The results in Table 9 indicate that overall response of Chris to AGP is higher than the response of Pavon 79.

[5] = tested on: barley cv Igri isolated microspores; assay: AGP effect on barley isolated microspore development in liquid FHG medium; settings: after 10 days
Excerpt: The effect of AGP concentration during embryogenic induction of barley microspores in culture was examined. A wide range of concentrations was applied to microspores […]. The AGP addition was effected by adding varying AGP concentrations in liquid FHG medium with 10^5 microspores onto solid FGH medium. Using a drop of microspores on solidified MFHG medium, structures were counted under an inverted microscope. The proportion of alive and dead microspores was not estimated in these plates, but the developing microspores were much higher in the 0 mg control compared to wheat. Thus, the difference in response of barley to AGP at day 10 is not as pronounced as in wheat.

[6] = tested on: wheat (cv. Pavon 76) microspores; assay: Influence of regeneration media on plant development from wheat microspores; settings: AGP in regeneration media
Method: A comparison of regeneration media composition was conducted for wheat microspores induced on a medium in the presence and absence AGP. The regeneration medium was based on MMS4 medium having either 3% sucrose or 9% maltose as a sugar source, or in an AGP-containing medium based on MMS4 with 9% maltose. The microspores were either induced on a support, in this case, a Watman #2 filter disk, or were placed on a solid media in liquid drops. […] Sucrose within the regeneration media was effective in producing a high percentage of green plants, however maltose was also found to be effective. Without wishing to be bound by theory, this may be due to the quicker release of energy from sucrose that is required for regeneration.

arabinogalactan protein [AGP]
# alive and dividing d 10 ([1]; AGP 1 mg/L, ovary +): 22605 | # alive not dividing d 10 ([1]; AGP 1 mg/L, ovary +): 2805 | # dead microspores d 10 ([1]; AGP 1 mg/L, ovary +): 47175 | # embryos 30 days ([1]; AGP 1 mg/L, ovary +): 2130 | # multicell burst d 10 ([1]; AGP 1 mg/L, ovary +): 1072 | # multicellular d 10 ([1]; AGP 1 mg/L, ovary +): 18500 | # alive and dividing d 10 ([1]; AGP 1 mg/L, ovary −): 22125 | # alive not dividing d 10 ([1]; AGP 1 mg/L, ovary −): 5650 | # dead microspores d 10 ([1]; AGP 1 mg/L, ovary −): 47558 | # embryos 30 days ([1]; AGP 1 mg/L, ovary −): 0 | # multicell burst d 10 ([1]; AGP 1 mg/L, ovary −): 400 | # multicellular d 10 ([1]; AGP 1 mg/L, ovary −): 13750 | # alive and dividing d 10 ([1]; AGP 5 mg/L, ovary +): 18272 | # alive not dividing d 10 ([1]; AGP 5 mg/L, ovary +): 7600 | # dead microspores d 10 ([1]; AGP 5 mg/L, ovary +): 30250 | # embryos 30 days ([1]; AGP 5 mg/L, ovary +): 3393 | # multicell burst d 10 ([1]; AGP 5 mg/L, ovary +): 7080 | # multicellular d 10 ([1]; AGP 5 mg/L, ovary +): 39078 | # alive and dividing d 10 ([1]; AGP 5 mg/L, ovary −): 26152 | # alive not dividing d 10 ([1]; AGP 5 mg/L, ovary −): 8275 | # dead microspores d 10 ([1]; AGP 5 mg/L, ovary −): 34500 | # embryos 30 days ([1]; AGP 5 mg/L, ovary −): 0 | # multicell burst d 10 ([1]; AGP 5 mg/L, ovary −): 742 | # multicellular d 10 ([1]; AGP 5 mg/L, ovary −): 28345 | # alive and dividing d 10 ([1]; AGP 10 mg/L, ovary +): 8500 | # alive not dividing d 10 ([1]; AGP 10 mg/L, ovary +): 0 | # dead microspores d 10 ([1]; AGP 10 mg/L, ovary +): 23550 | # embryos 30 days ([1]; AGP 10 mg/L, ovary +): 4250 | # multicell burst d 10 ([1]; AGP 10 mg/L, ovary +): 15452 | # multicellular d 10 ([1]; AGP 10 mg/L, ovary +): 68000 | # alive and dividing d 10 ([1]; AGP 10 mg/L, ovary −): 33275 | # alive not dividing d 10 ([1]; AGP 10 mg/L, ovary −): 6250 | # dead microspores d 10 ([1]; AGP 10 mg/L, ovary −): 24650 | # embryos 30 days ([1]; AGP 10 mg/L, ovary −): 50 | # multicell burst d 10 ([1]; AGP 10 mg/L, ovary −): 4620 | # multicellular d 10 ([1]; AGP 10 mg/L, ovary −): 41950 | # of plants Albino ([2]; AGP 1 mg/L with ovaries): 70 | # of plants Total ([2]; AGP 1 mg/L with ovaries): 118 | # of plants green ([2]; AGP 1 mg/L with ovaries): 48 | % of green plants ([2]; AGP 1 mg/L with ovaries): 41% | % of regen. ([2]; AGP 1 mg/L with ovaries): 47% | Total # of embryos ([2]; AGP 1 mg/L with ovaries): 2130 | # of plants Albino ([2]; AGP 5 mg/L with ovaries): 70 | # of plants Total ([2]; AGP 5 mg/L with ovaries): 120 | # of plants green ([2]; AGP 5 mg/L with ovaries): 50 | % of green plants ([2]; AGP 5 mg/L with ovaries): 42% | % of regen. ([2]; AGP 5 mg/L with ovaries): 48% | Total # of embryos ([2]; AGP 5 mg/L with ovaries): 3393 | # of plants Albino ([2]; AGP 10 mg/L with ovaries): 60 | # of plants Total ([2]; AGP 10 mg/L with ovaries): 189 | # of plants green ([2]; AGP 10 mg/L with ovaries): 129 | % of green plants ([2]; AGP 10 mg/L with ovaries): 68% | % of regen. ([2]; AGP 10 mg/L with ovaries): 76% | Total # of embryos ([2]; AGP 10 mg/L with ovaries): 4250 | embryogenesis, regeneration and % green plant production ([2]; addition of 10 mg/L of AGP, genotype Pavon 79): significant improvement | embryo response in liquid and on filter paper ([3]; 10 mg/liter of AGP compared with 0 and 5 mg/liter): best response | Total # Embryos/Plate ([3]; AGP 1 mg/L, Liquid): 2130 | Total # Embryos/Plate ([3]; AGP 5 mg/L, Filter): 3080 | Total # Embryos/Plate ([3]; AGP 5 mg/L, Liquid): 3393 | Total # Embryos/Plate ([3]; AGP 10 mg/L, Filter): 4528 | Total # Embryos/Plate ([3]; AGP 10 mg/L, Liquid): 4250 | avg. # embryos ([4]; AGP 5 mg/L): 5618 | # embryos ([4]; AGP 5 mg/L): 4155 | avg. # embryos ([4]; AGP 10 mg/L): 9836 | # embryos ([4]; AGP 10 mg/L): 4681 | Dividing within microspore ([5]; AGP 2 mg/L): 39600 | Free Multicellulars ([5]; AGP 2 mg/L): 33550 | Total Developing ([5]; AGP 2 mg/L): 73150 | Dividing within microspore ([5]; AGP 5 mg/L): 43000 | Free Multicellulars ([5]; AGP 5 mg/L): 38230 | Total Developing ([5]; AGP 5 mg/L): 81230 | Dividing within microspore ([5]; AGP 10 mg/L): 45280 | Free Multicellulars ([5]; AGP 10 mg/L): 35750 | Total Developing ([5]; AGP 10 mg/L): 81030 | Dividing within microspore ([5]; AGP 25 mg/L): 39880 | Free Multicellulars ([5]; AGP 25 mg/L): 36030 | Total Developing ([5]; AGP 25 mg/L): 75910 | Dividing within microspore ([5]; AGP 50 mg/L): 37120 | Free Multicellulars ([5]; AGP 50 mg/L): 39880 | Total Developing ([5]; AGP 50 mg/L): 77000 | Dividing within microspore ([5]; AGP 100 mg/L): 42900 | Free Multicellulars ([5]; AGP 100 mg/L): 37730 | Total Developing ([5]; AGP 100 mg/L): 80630 | Dividing within microspore ([5]; AGP 500 mg/L): 35890 | Free Multicellulars ([5]; AGP 500 mg/L): 37810 | Total Developing ([5]; AGP 500 mg/L): 73700 | Dividing within microspore ([5]; AGP 1000 mg/L): 38500 | Free Multicellulars ([5]; AGP 1000 mg/L): 41600 | Total Developing ([5]; AGP 1000 mg/L): 80100 | effect of addition of AGP to the regeneration media on green plants [6]: reduced the number of green plants produced
